Results taken from US20180312493A1, “Antibiotic Compounds, Pharmaceutical Formulations Thereof And Methods And Uses Therefor” (Simon Fraser University, priority 2015, published 2018).
≈ marks a conversion by molar mass, not a printed value.

Key:
MRSA Pyk = target: T1, MRSA Pyk (Staphylococcus aureus, UniProt Q6GG09); experiment: MRSA pyruvate kinase (PK) activity, continuous LDH-coupled assay; type: biochemical, methicillin resistant S. aureus (MRSA252)
T1 construct: made in house; host or cells: E. coli BL-21 (DE3)
T1 sequence (Q6GG09 whole entry): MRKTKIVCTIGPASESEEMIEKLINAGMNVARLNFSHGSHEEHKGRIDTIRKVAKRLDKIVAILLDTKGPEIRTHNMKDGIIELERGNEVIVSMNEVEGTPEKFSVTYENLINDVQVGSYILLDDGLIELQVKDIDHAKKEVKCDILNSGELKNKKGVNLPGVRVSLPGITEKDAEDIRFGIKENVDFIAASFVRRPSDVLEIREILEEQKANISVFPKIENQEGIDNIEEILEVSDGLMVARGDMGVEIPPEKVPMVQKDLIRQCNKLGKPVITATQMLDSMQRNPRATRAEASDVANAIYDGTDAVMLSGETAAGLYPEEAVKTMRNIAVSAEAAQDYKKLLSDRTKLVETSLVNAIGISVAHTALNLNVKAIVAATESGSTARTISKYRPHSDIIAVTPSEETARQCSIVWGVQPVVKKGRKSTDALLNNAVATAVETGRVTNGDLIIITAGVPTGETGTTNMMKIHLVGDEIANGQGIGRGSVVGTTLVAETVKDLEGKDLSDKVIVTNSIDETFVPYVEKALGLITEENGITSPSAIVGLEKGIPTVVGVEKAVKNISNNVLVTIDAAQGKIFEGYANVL
Source text: Genomic DNA of MRSA strain Sanger 252 extracted using DNeasy Tissue Kit™ (Qiagen™) was used as a template to generate the His-tagged MRSA PK. Human cDNA from MCF-7 breast cancer cell line (courtesy of Dr. J Wong, BC Cancer Research Center (Vancouver, Canada)) was used as a template to generate the full-length human M2 PK enzyme. The following primer sets were used creating appropriate restriction sites (NdeI and XhoI sites underlined): For cloning of MRSA PK: M27F 5′-[…]-3′ and M27R 5′-[…]-3′, for cloning of human M2 PK isoform: hM2F 5′-[…]-3′ and hM2R 5′-[…]-3′. The resulting PCR fragments for each construct were cloned into the NdeI and XhoI unique sites of the bacterial expression vector pET-28a (+) (Novagen™). […] The sequence and the correct reading frame of all constructs were verified by sequencing. Human M1, R and L PK constructs in pET-28-a(+) vectors (courtesy of Dr. L. Cantley, Harvard Medical, School (Boston, USA)) were used to generate relevant recombinant His-tagged human PK isoforms.
MRSA and human constructs in pET-28a(+) were used to express relevant recombinant PK proteins in E. coli BL-21 (DE3). The proteins were expressed and purified using Ni-NTA agarose (Qiagen™) according to the manufacturer's protocol. Briefly, cells were grown to an absorbance of 0.4-0.5 at 600 nm in 2×YT medium, then induced with 0.1 mM IPTG for 3 h at 20° C. Cells were lysed by sonication on ice (3×10-s bursts with a 30-s recovery between bursts) in lysis buffer (0.2 mg/ml lysozyme, 50 mM Tris pH 7.5, 10 mM MgCl2, 200 mM NaCl, 100 mM KCl, 10% glycerol, 10 mM imidazole, 0.5% NP-40 and 1 mM DTT containing Complete™ protease inhibitor). Cell lysates were cleared by centrifugation (18,000×g in a Beckman™ JA-20 rotor) for 20 min at 4° C. and PK isoforms were purified by batch binding to Ni-NTA resin. The resins were then packed in columns (1×2 cm) and washed with 400 column volumes lysis buffer containing 30 mM imidazole. His-tagged PK isoforms were eluted with the same buffer containing 300 mM imidazole. The proteins were dialyzed overnight at 4° C. against 2000 volumes of ice-cold 30 mM Tris pH 7.5, 25 mM KCl, 5 mM MgCl2, 10% glycerol and 1 mM DTT to remove imidazole. All purification steps were done at 4° C.; enzymes were flash-frozen and stored at −70° C. Enzymatic activity of frozen protein preparations was stable for at least 10 months and up to 5 freeze/thaw cycles. Purity and physical integrity of proteins were assessed using SDS-polyacrylamide gel electrophoresis (SDS-PAGE) followed by coomassie blue staining. Protein concentration was estimated by Bradford assay (Bio-Rad Protein Assay™) using bovine serum albumin as a standard.
Candidate MRSA PK inhibitors were assayed for their ability to inhibit enzymatic activities of MRSA and human PKs. PK activity was determined using a continuous assay coupled to lactate dehydrogenase (LDH) in which the change in absorbance at 340 nm owing to oxidation of NADH was measured using a Benchmark Plus™ microplate spectrophotometer (Bio-Rad Laboratories, Hercules, Calif.). […] Reactions were initiated by the addition of 15 nM of one of the PK enzymes. PK activity proportional to the rate of change at 340 nm was expressed as specific activity (μmol/min/mg), which is defined as the amount of PK that catalyzes the formation of one micromole of either product per minute. Inhibitors were dissolved in DMSO with the final concentration of the solvent never exceeding 1% of the assay volume. IC50 values were calculated by curve fitting on a four-parameter dose-response model with variable slope using Graphpad Prism 5.0™ (GraphPad™ Software Inc., La Jolla, Calif.). In all studies, less than 10% of total PEP was exhausted during the reaction. Reactions were performed at 30° C. for up to 5 min. All values determined represent at least two measurements, in triplicate (Tables 1-6) or duplicate unless mentioned otherwise. […]

S. aureus (ATCC29213) = experiment: In vitro susceptibility, broth microdilution (MIC); type: cell-based; conditions: Staphylococcus aureus; S. aureus ATCC29213; 18-24 h, 37 C; read-out: Antimicrobial activity (MIC) S. aureus ATCC29213
Source text: Epidemic methicillin resistant S. aureus (MRSA) strain sequenced at the Sanger Centre (MRSA252, NRS71) was obtained from NARSA (Network on Antimicrobial Resistance in S. aureus). Methicillin sensitive S. aureus (ATCC 29213 and 25923), methicillin resistant S. aureus (ATCC BAA-1762), and Salmonella typhimurium (ATCC BAA-185) were obtained from ATCC, The Global Bioresource Center. Acinetobacter baumannii (ATCC 19606 and ATCC 17978), Klebsiella pneumonia (C238), vancomycin resistant Enterococci #2 (2010A) (VRE#2), MRSA (USA400, MW2) and Pseudomonas aeruginosa (PA0-1) were obtained from the laboratory of Dr B. B. Finlay at the University of British Columbia (Vancouver, Canada).
The antimicrobial activities of PK inhibitor candidates were determined using the 96-well microtiter standard 2-fold serial broth microdilution method as described by CLSI (formerly NCCLS) with the various gram-positive and gram-negative bacteria species mentioned above. Bacteria from a single colony were grown, overnight in either BHI Broth (VRE), mueller hinton broth (S. aureus 29213; MRSA USA400, A. baumannii 19606, MRSA BAA-1762) or L-broth (P. aeruginosa, S. typhimurium, K. pneumonia and A. baumannii 17978). […] Culture plates were incubated for 18-24 h at 37° C., and optical density at 600 nm (OD600) was measured using a Benchmark Plus™ microplate spectrophotometer (Bio-Rad™). The absorbance control values for the series containing CAMHB and inhibitor were subtracted as background from the corresponding infected wells. Minimal inhibitory concentration (MIC) was defined as the lowest concentration of test compound leading to complete inhibition of cell growth in relation to compound-free control wells as determined by optical density. Vancomycin, methicillin and ciprofloxicin were used as reference compounds. All assays were run in triplicate or duplicate. Experiments were replicated at least twice to verify reproducibility using the above conditions.

SMILES	IC50 (MRSA Pyk) [µM]	MIC (S. aureus (ATCC29213)) [µg/mL]
CNC(=O)c1c(CCc2ccc(Cl)cc2)[nH]c2cc(Br)ccc12 [Compound 49, 6-Bromo-2-(4-chlorophenethyl)-N-methyl-1H-indole-3-carboxamide]	> 1	> 64
O=C(NCCN1CCN(C(=O)CO)CC1)c1c(/C=C/c2ccc(Cl)cc2)[nH]c2cc(Br)ccc12 [Compound 58, (E)-6-Bromo-2-(4-chlorostyryl)-N-(2-(4-(2-hydroxyacetyl)piperazin-1-yl)ethyl)-1H-indole-3-carboxamide]	< 0.1	> 64
CN(C)C(=O)c1c(CCc2ccc(Cl)cc2)[nH]c2ccccc12 [Compound 51, 2-(4-Chlorophenethyl)-N,N-dimethyl-1H-indole-3-carboxamide]	> 1	> 64
O=C(O)CCC(=O)N1CCN(CCNC(=O)c2c(/C=C/c3ccc(Cl)cc3)[nH]c3cc(Br)ccc23)CC1 [Compound 59, (E)-4-(4-(2-(6-Bromo-2-(4-chlorostyryl)-1H-indole-3-carboxamido)ethyl)piperazin-1-yl)-4-oxobutanoic Acid]	0.1 to 1	> 64
O=C(O)CNC(=O)c1c(/C=C/c2ccc(Cl)cc2)[nH]c2cc(Br)ccc12 [Compound 38, (E)-2-(6-Bromo-2-(4-chlorostyryl)-1H-indole-3-carboxamido)acetic Acid]	< 0.1	> 64
O=C(NCc1ccccc1)c1cc(Br)cc2[nH]c(/C=C/c3ccc(Cl)cc3)cc12 [Compound 63, (E)-N-Benzyl-6-bromo-2-(4-chlorostyryl)-1H-indole-4-carboxamide]	0.1 to 1	> 64
CN1CCN(CCNC(=O)c2c(/C=C/c3ccc(Cl)cc3)[nH]c3cc(Br)ccc23)CC1 [Compound 31, (E)-6-Bromo-2-(4-chlorostyryl)-N-(2-(4-methylpiperazin-1-yl)ethyl)-1 H-indole-3-carboxamide]	< 0.1	16 (≈ 31.9 µM)
Clc1ccc(/C=C/c2[nH]c3cc(Br)ccc3c2-c2nn[nH]n2)cc1 [Compound 69, (E)-6-Bromo-2-(4-chlorostyryl)-3-(2H-tetrazol-5-yl)-1H-indole]	< 0.1	16 (≈ 39.9 µM)
O=C(NCCN1CCN[C@H](C(=O)O)C1)c1c(-c2cc3cc(Cl)ccc3[nH]2)[nH]c2cc(Br)ccc12 [Compound 229, (S)-4-(2-(6-bromo-5′-chloro-1H,1′H-[2,2′-biindole]-3-carboxamido)ethyl)piperazine-2-carboxylic Acid]	< 0.1	> 64
OC(c1c(CCc2ccc(Cl)cc2)[nH]c2cc(Br)ccc12)(C(F)(F)F)C(F)(F)F [Compound 14, 2-(6-Bromo-2-(4-chlorophenethyl)-1H-indol-3-yl)-1,1,1,3,3,3-hexafluoropropan-2-ol]	0.1 to 1	1 (≈ 2 µM)
O=C(NCCN1CCC(O)CC1)c1c(/C=C/c2ccc(Cl)cc2)[nH]c2cc(Br)ccc12 [Compound 30, (E)-6-Bromo-2-(4-chlorostyryl)-N-(2-(4-hydroxypiperidin-1-yl)ethyl)-1 H-indole-3-carboxamide]	0.1 to 1	16 (≈ 31.8 µM)
CC(C)(C)OC(=O)N1CCN(CCNC(=O)c2c(C(=O)Nc3ccc(Cl)cc3)[nH]c3cc(Br)ccc23)CC1 [Compound 78, tert-Butyl 4-(2-(6-bromo-2-((4-chlorophenyl)carbamoyl)-1H-indole-3-carboxamido)ethyl)piperazine-1-carboxylate]	< 0.1	> 64
CN(C)CCC(=O)c1c(/C=C/c2cn3ccccc3n2)[nH]c2cc(Br)ccc12 [Compound 9, (E)-1-(6-Bromo-2-(2-(imidazo[1,2-a]pyridin-2-yl)vinyl)-1H-indol-3-yl)-3-(dimethylamino)propan-1-one]	0.1 to 1	32 (≈ 73.2 µM)
O=C(OCCN1CCOCC1)c1c(/C=C/c2ccc(Cl)cc2)[nH]c2cc(Br)ccc12 [Compound 62, 2-Morpholinoethyl (E)-6-bromo-2-(4-chlorostyryl)-1H-indole-3-carboxylate]	0.1 to 1	> 64
CN(C)C(=O)c1cc(Br)cc2[nH]c(/C=C/c3ccc(Cl)cc3)cc12 [Compound 64, (E)-6-Bromo-2-(4-chlorostyryl)-N,N-dimethyl-1H-indole-4-carboxamide]	< 0.1	> 64
CC(C)(C)OC(=O)N1CCN(CCNC(=O)c2c(/C=C/c3ccc(Cl)cc3)[nH]c3cc(Br)ccc23)CC1 [Compound 33, (E)-tert-Butyl 4-(2-(6-bromo-2-(4-chlorostyryl)-1H-indole-3-carboxamido)ethyl)piperazine-1-carboxylate]	> 1	> 64
CN(C)CCNC(=O)c1c(/C=C/c2cc(Cl)cc(Cl)c2)[nH]c2cc(Br)ccc12 [Compound 34, (E)-6-Bromo-2-(3,5-dichlorostyryl)-N-(2-(dimethylamino)ethyl)-1H-indole-3-carboxamide]	> 1	16 (≈ 33.2 µM)
O=C(c1c(-c2cc3ccccc3[nH]2)[nH]c2cc(Br)ccc12)N1CCOCC1 [Compound 76, (6-Bromo-1H,1′H-[2,2′-biindol]-3-yl)(morpholino)methanone]	> 1	> 64
CN(C)CCN(C)C(=O)c1c(/C=C/c2ccc(Cl)cc2)[nH]c2cc(Br)ccc12 [Compound 24, (E)-6-Bromo-2-(4-chlorostyryl)-N-(2-(dimethylamino)ethyl)-N-methyl-1H-indole-3-carboxamide]	0.1 to 1	> 64
NC(=O)[C@@H]1CCCN1CCCCNC(=O)c1c(-c2cc3cc(Cl)ccc3[nH]2)[nH]c2cc(Br)ccc12 [Compound 116, (S)-6-Bromo-N-(4-(2-carbamoylpyrrolidin-1-yl)butyl)-5′-chloro-1H,1′H-[2,2′-biindole]-3-carboxamide]	< 0.1	> 64
O=C(c1c(CCc2ccc(Cl)cc2)[nH]c2cc(Br)ccc12)C1CCOCC1 [Compound 4, (6-Bromo-2-(4-chlorophenethyl)-1H-indol-3-yl)(tetrahydro-2H-pyran-4-yl)methanone]	< 0.1	8 (≈ 17.9 µM)
